According to patent US10294217B2, “Fluoroindole derivatives as muscarinic M1 receptor positive allosteric modulators” (Suven Life Sciences Limited, priority 2015, dated 2019):

What was measured:
[1] = Rodent pharmacokinetic study; type: in vivo, Male Wistar rats; settings: male, Wistar; for AUC(0-t) / half-life / Cmax: rat plasma; for clearance / bioavailability: plasma, rat; for bioavailability: oral 3 mg/kg vs i.v. 1 mg/kg, read-out: % F (Bioavailability)
Method: Rodent Pharmacokinetic Study
Male Wistar rats (260±50 grams) were used as experimental animals. Animals were housed individually in polypropylene cage. Two days prior to study, male Wistar rats were anesthetized with isoflurane for surgical placement of jugular vein catheter. Rats were randomly divided for oral (3 mg/kg) and intravenous (i.v.) (1 mg/kg) dosing (n=3/group) and fasted overnight before oral dosing (p.o.). However, rats allocated to intravenous dosing food and water was provided ad libitum.
At pre-determined point, blood was collected through jugular vein and replenished with an equivalent volume of normal saline. Collected blood was transferred into a labeled eppendorf tube containing 10 μL of heparin as an anticoagulant. Typically blood samples were collected at following time points: 0.08, 0.25, 0.5, 1, 2, 4, 6, 8, and 24 hours post dose. Blood was centrifuged at 4000 rpm for 10 minutes. Plasma was separated and stored frozen at −80° C. until analysis. The concentrations of the test compounds were quantified in plasma by qualified LC-MS/MS method using suitable extraction technique. The test compounds were quantified in the calibration range around 1-1000 ng/mL in plasma. Study samples were analyzed using calibration samples in the batch and quality control samples spread across the batch.
Pharmacokinetic parameters Cmax, AUCt, T1/2, Clearance, and Bioavailability (% F) were calculated by non-compartmental model using standard non-compartmental model by using Phoenix WinNonlin 6.0.2 or 6.0.3 version Software package and the results are tabulated in table 3.

[2] = Protein binding assay (HT dialysis), dog matrices; type: in vitro ADME; settings: Mean ± SEM
Method: (§1) Unbound fractions of new chemical entities in plasma, brain homogenate and liver microsomes were determined using high-throughput dialysis (HT dialysis). Briefly, dialysis membranes were soaked in deionized water for 20 minutes and then in deionized water with 30% ethanol for 15 minutes and finally in phosphate buffer until use. Membranes were rinsed in phosphate buffer before assembling. The membranes were layered between teflon bars of dialysis assembly. Stock solutions of test compounds were prepared at 10 mM in DMSO, diluted to 1 mM in acetonitrile and further diluted to 100 μM in mixture of water and acetonitrile (1:1 v/v). Human plasma (pool of 3) was prepared from human blood (3 donors) by centrifuging at 4000 rpm for 10 min at 4° C. Rat and dog blood were obtained on the day of the study and centrifuged to obtain plasma. Rat brains were isolated, cleaned and homogenized with 2 volumes of buffer (3 fold dilution). Liver microsomes were prepared at 0.5 mg/mL in phosphate buffer (100 mM, pH 7.4). The dialysate chambers were loaded with 150 μL of 100 mM phosphate buffer (pH 7.4) in triplicates. The matrix chambers were loaded with 150 μL of the plasma or brain homogenate or microsomal suspension spiked with test compounds at a final concentration of 1 μM. 50 μL of the sample was removed from both the chambers at 0 h. The plate was sealed and incubated at 37° C. for 6 h at 100 rpm. After 6 h, 50 μL of the sample was removed from both the chambers. Equal volumes of buffer or human plasma/microsomal suspension were added to the plasma/microsomal and buffer samples respectively to create identical sample matrices for analysis. The samples were precipitated with 150 μL of acetonitrile containing fluoxetine as an internal standard. All the samples were centrifuged at 10000 rpm for 10 minutes at 4° C.

[3] = Rodent brain penetration study; type: in vivo, Male Wistar rats; settings: male, Wistar, rat, oral; 3 mg/kg, p.o.; brain-plasma ratio; read-out: Single dose Rat Brain Penetration (Cb/Cp)
Method: WO2015044072A1 patent application discloses indole derivatives as M1 PAM compounds. […] This makes these compounds less ideal for the treatment of CNS disorders.
Rodent Brain Penetration Study
Male Wistar rats (260±40 grams) were used as experimental animals. Three animals were housed in each cage. Animals were given water and food ad libitum throughout the experiment and maintained on a 12 hours light/dark cycle.
Brain penetration was determined in discrete manner in rats. One day prior to dosing day, male Wistar rats were acclimatized and randomly grouped according to their weight. At each time point (0.5, 1 and 2 hours) n=3 animals were used.
The test compounds were suitably preformulated and administered orally at (free base equivalent) 3 mg/kg. Blood samples were removed via cardiac puncture by using isoflurane anesthesia. The animals were sacrificed to collect brain tissue. Plasma was separated and brain samples were homogenized and stored frozen at ˜20° C. until analysis. The concentrations of the test compounds in plasma and brain were determined using LC-MS/MS method.
The test compounds were quantified in plasma and brain homogenate by qualified LC-MS/MS method using suitable extraction technique. The test compounds were quantified in the calibration range of 1-500 ng/mL in plasma and brain homogenate. Study samples were analyzed using calibration samples in the batch and quality control samples spread across the batch.

Male Wistar rats = assay: Object recognition task model; type: in vivo; settings: p.o.; for Exploration time Familiar object / Exploration time Novel object: mean ± S.E.M, choice trial 24 hours after T1
Method: Object Recognition Task Model
The cognition enhancing properties of compounds of this invention were estimated by using this model.
Male Wistar rats (8-10 weeks old) were used as experimental animals. Four animals were housed in each cage. Animals were kept on 20% food deprivation from a day prior to experimentation. Water was provided ad libitum throughout the experiment. Animals were maintained on a 12 hours light/dark cycle in temperature and humidity controlled room. The experiment was carried out in an open field made up of acrylic. Rats were habituated to individual arenas (open field) for 1 hour in the absence of any objects on day 1.
One group of 12 rats received vehicle and another set of animals received compound of the formula (I), before the familiar (T1) and choice (T2) trials. During the familiarization phase, (T1), the rats were placed individually in the arena for 3 minutes, in which two identical objects (a1 and a2) were positioned 10 cm from the wall. 24 hours after T1, trial for long-term memory test was performed. The same rats were placed in the same arena as they were placed in T1 trial. During the choice phase (T2) rats were allowed to explore the arena for 3 minutes in presence of a copy of familiar object (a3) and one novel object (b). During the T1 and T2 trial, explorations of each object (defined as sniffing, licking, chewing or having moving vibrissae whilst directing the nose towards the object at a distance of less than 1 cm) were recorded using stopwatch. • T1 is the total time spent exploring the familiar objects (a1+a2). • T2 is the total time spent exploring the familiar object and novel object (a3+b). • Discriminative index=Time spent with novel object/(time spent with novel and familiar object).
The object recognition test was performed as described by Behavioural Brain Research, 1988, 31, 47-59 and the results are provided in table 5.

[4] = Protein binding assay (HT dialysis), human matrices; type: in vitro ADME; settings: Mean ± SEM
Method: as §1

[5] = pH 7.4, Dog liver microsomes 0.5 mg/mL, n = 3, read-out: Fu Microsomes
[6] = pH 7.4, Dog plasma, 37° C., n = 3, read-out: Fu Plasma
[7] = pH 7.4, Human liver microsomes 0.5 mg/mL, n = 3, read-out: Fu Microsomes
[8] = pH 7.4, Human plasma, 37° C., n = 3, read-out: Fu Plasma

SMILES | AUC(0-t) ([1]; iv, 1 mg/kg) | half-life ([1]; iv, 1 mg/kg) | clearance ([1]; iv, 1 mg/kg) | bioavailability [1] | AUC(0-t) ([1]; oral, 3 mg/kg) | Cmax ([1]; oral, 3 mg/kg) | half-life ([1]; oral, 3 mg/kg) | fraction unbound at 6 h, 1 μM [2, 5] | fraction unbound at 6 h, 1 μM [2, 6] | Kp [3] | Inference (Male Wistar rats; 1 mg/kg) | Exploration time Familiar object (Male Wistar rats; 1 mg/kg) | Exploration time Novel object (Male Wistar rats; 1 mg/kg) | fraction unbound at 6 h, 1 μM [4, 7] | fraction unbound at 6 h, 1 μM [4, 8] | Inference (Male Wistar rats; 0.3 mg/kg) | Exploration time Familiar object (Male Wistar rats; 0.3 mg/kg) | Exploration time Novel object (Male Wistar rats; 0.3 mg/kg) | also measured
O=C(N[C@H]1CCCC[C@@H]1O)c1cn(Cc2ccnc(F)c2)c2cccc(F)c12 [Example 7, N-[(1S,2S)-2-Hydroxycyclohexyl]-1-(2-fluoropyridin-4-ylmethyl)-4-fluoro-1H-indole-3-carboxamide] | 1120 ± 119 ng·h/mL | 120 ± 24 min | 14.2 ± 2 mL/min/kg | 67 ± 14% | 2260 ± 471 ng·h/mL | 783 ± 254 ng/mL | 84 ± 12 min | 0.6 ± 0.03 | 0.2 ± 0.01 | 0.61 ± 0.01 | Active | 9.16 ± 0.83 s | 19.56 ± 1.96 s | 0.7 ± 0.03 | 0.1 ± 0.004 | – | – | – | –
Cl.O=C(N[C@H]1CCNC[C@H]1F)c1cn(Cc2ccnc(F)c2)c2c(F)ccc(F)c12 (single isomer, unassigned; isomer-i) [Example 22, Cis-N-(3-Fluoropiperidin-4-yl)-1-(2-fluoropyridin-4-ylmethyl)-4,7-difluoro-1H-indole-3-carboxamide hydrochloride (Isomer-I)] | 908 ± 198 ng·h/mL | 456 ± 102 min | 17.1 ± 3.3 mL/min/kg | 60 ± 5% | 1650 ± 147 ng·h/mL | 207 ± 76 ng/mL | 288 ± 168 min | 0.866 ± 0.034 | 0.31 ± 0.01 | 0.46 ± 0.11 | – | – | – | 0.788 ± 0.031 | 0.309 ± 0.008 | – | – | – | Inference (Male Wistar rats; 3 mg/kg): Active; Exploration time Familiar object (Male Wistar rats; 3 mg/kg): 8.21 ± 0.70 s; Exploration time Novel object (Male Wistar rats; 3 mg/kg): 15.72 ± 2.25 s
Cn1cc(Cn2cc(C(=O)N[C@H]3CCCC[C@@H]3O)c3c(F)ccc(F)c32)cn1 [Example 5, N-[(1S,2S)-2-Hydroxycyclohexyl]-1-(1-methyl-1H-pyrazol-4-ylmethyl)-4,7-difluoro-1H-indole-3-carboxamide] | 2920 ± 1430 ng·h/mL | 240 ± 102 min | 7.1 ± 4.3 mL/min/kg | 90 ± 33% | 7870 ± 2860 ng·h/mL | 2680 ± 664 ng/mL | 198 ± 18 min | 0.746 ± 0.004 | 0.163 ± 0.02 | 0.5 ± 0.04 | – | – | – | 0.899 ± 0.03 | 0.077 ± 0.01 | Active | 11.00 ± 0.81 s | 19.64 ± 1.74 s | –
O=C(N[C@H]1CCCC[C@@H]1O)c1cn(Cc2ccnc(Cl)c2)c2cccc(F)c12 [Example 2, N-[(1S,2S)-2-Hydroxycyclohexyl]-1-(2-chloropyridin-4-ylmethyl)-4-fluoro-1H-indole-3-carboxamide] | 1150 ± 245 ng·h/mL | 114 ± 24 min | 16.1 ± 2.8 mL/min/kg | 63 ± 17% | 2160 ± 599 ng·h/mL | 632 ± 167 ng/mL | 114 ± 12 min | 0.576 ± 0.079 | 0.087 ± 0.008 | 0.95 ± 0.17 | Active | 9.06 ± 1.75 s | 15.09 ± 2.19 s | 0.459 ± 0.046 | 0.04 ± 0.002 | – | – | – | –
O=C(N[C@H]1CCCC[C@@H]1O)c1cn(Cc2ccnc(F)c2)c2c(F)ccc(F)c12 [Example 8, N-[(1S,2S)-2-Hydroxycyclohexyl]-1-(2-fluoropyridin-4-ylmethyl)-4,7-difluoro-1H-indole-3-carboxamide] | 1830 ± 562 ng·h/mL | 108 ± 18 min | 9 ± 3 mL/min/kg | 45 ± 15% | 2500 ± 842 ng·h/mL | 578 ± 170 ng/mL | 138 ± 108 min | 0.679 ± 0.066 | 0.064 ± 0.01 | 1.1 ± 0.1 | – | – | – | 0.626 ± 0.037 | 0.079 ± 0.006 | Active | 7.59 ± 1.02 s | 14.36 ± 1.56 s | –
Cn1cc(Cn2cc(C(=O)N[C@H]3CCCC[C@@H]3O)c3c(F)cccc32)cn1 [Example 1, N-[(1S,2S)-2-Hydroxycyclohexyl]-1-(1-methyl-1H-pyrazol-4-ylmethyl)-4-fluoro-1H-indole-3-carboxamide] | 2250 ± 190 ng·h/mL | 180 ± 18 min | 7.3 ± 0.4 mL/min/kg | 76 ± 7% | 5160 ± 464 ng·h/mL | 1190 ± 81 ng/mL | 174 ± 12 min | 0.982 ± 0.01 | 0.217 ± 0.21 | 0.3 ± 0.05 | – | – | – | – | 0.197 ± 0.01 | Active | 11.31 ± 1.07 s | 28.92 ± 3.54 s | –
